Measurements as given in US12715849B2, “Herbicidal tetrazole compounds” (SYNGENTA CROP PROTECTION AG, priority 2020, dated 2026).

Tests used:
Type in all cases: in vivo
[1] = test system: Amaranthus palmeri (AMAPA); assay: Glasshouse herbicidal test, pre- and post-emergence (Table B1); conditions: 130 g/h, evaluated after 13 days; for percentage damage caused to the plant, PRE Application AMAPA: pre-emergence
Experimental: (§1) Seeds of a variety of test species are sown in standard soil in pots (Lolium perenne (LOLPE), Amaranthus retoflexus (AMARE), Amaranthus palmeri (AMAPA), Ablution theophrasti (ABUTH), Setaria faberi (SETFA), Echinochloa crus-galli (ECHCG), Ipomoea hederacea (IPOHE)). After cultivation for one day (pre-emergence) or after 8 days cultivation (post-emergence) under controlled conditions in a glasshouse (at 24/16° C., day/night; 14 hours light; 65% humidity), the plants are sprayed with an aqueous spray solution derived from the formulation of the technical active ingredient in acetone/water (50:50) solution containing 0.5% Tween 20 (polyoxyethelyene sorbitan monolaurate, CAS RN 9005-64-5). Compounds are applied at 130 g/h unless otherwise indicated. The test plants are then grown in a glasshouse under controlled conditions in a glasshouse (at 24/16° C., day/night; 14 hours light; 65% humidity) and watered twice daily. After 13 days for pre and post-emergence, the test is evaluated for the percentage damage caused to the plant. The biological activities are shown in the following table on a five-point scale (5=80-100%; 4=60-79%; 3=40-59%; 2=20-39%; 1=0-19%).

[2] = test system: Amaranthus retoflexus (AMARE); assay: as above; conditions: 130 g/h, evaluated after 13 days; for percentage damage caused to the plant, POST Application AMARE: post-emergence; for percentage damage caused to the plant, PRE Application AMARE: pre-emergence
Experimental: as §1

[3] = test system: Echinochloa crus-galli (ECHCG); assay: as above; conditions: 130 g/h, evaluated after 13 days; for percentage damage caused to the plant, POST Application ECHCG: post-emergence; for percentage damage caused to the plant, PRE Application ECHCG: pre-emergence
Experimental: as §1

[4] = test system: Ipomoea hederacea (IPOHE); assay: as above; conditions: 130 g/h, evaluated after 13 days; for percentage damage caused to the plant, POST Application IPOHE: post-emergence; for percentage damage caused to the plant, PRE Application IPOHE: pre-emergence
Experimental: as §1

Setaria faberi (SETFA) = assay: as above; conditions: 130 g/h, evaluated after 13 days; for percentage damage caused to the plant, POST Application SETFA: post-emergence; for percentage damage caused to the plant, PRE Application SETFA: pre-emergence
Experimental: as §1

[5] = test system: AMARE (Amaranthus retoflexus); assay: Comparative test, pre-emergence (Table B2); conditions: after 14 days
[6] = test system: ECHCG (Echinochloa crus-galli); assay: Comparative test, pre-emergence (Table B2); conditions: after 14 days
SETFA (Setaria faberi) = assay: Comparative test, pre-emergence (Table B2); conditions: after 14 days
[7] = test system: IPOHE (Ipomoea hederacea); assay: Comparative test, pre-emergence (Table B2); conditions: after 14 days

Compound	percentage damage caused to the plant, POST Application AMAPA ([1]; post-emergence)	percentage damage caused to the plant, PRE Application AMAPA [1]	percentage damage caused to the plant, POST Application AMARE [2]	percentage damage caused to the plant, PRE Application AMARE [2]	percentage damage caused to the plant, POST Application ECHCG [3]	percentage damage caused to the plant, PRE Application ECHCG [3]	percentage damage caused to the plant, POST Application IPOHE [4]	percentage damage caused to the plant, PRE Application IPOHE [4]	percentage damage caused to the plant, POST Application SETFA (Setaria faberi (SETFA))	percentage damage caused to the plant, PRE Application SETFA (Setaria faberi (SETFA))	damage to plant (100 = total damage; 0 = no damage), PRE Application AMARE ([5]; rate 31 g/ha)	damage to plant (100 = total damage; 0 = no damage), PRE Application AMARE ([5]; rate 130 g/ha)	damage to plant (100 = total damage; 0 = no damage), PRE Application ECHCG ([6]; rate 31 g/ha)	damage to plant (100 = total damage; 0 = no damage), PRE Application ECHCG ([6]; rate 130 g/ha)	damage to plant (100 = total damage; 0 = no damage), PRE Application SETFA (SETFA (Setaria faberi); rate 31 g/ha)	damage to plant (100 = total damage; 0 = no damage), PRE Application SETFA (SETFA (Setaria faberi); rate 130 g/ha)	damage to plant (100 = total damage; 0 = no damage), PRE Application IPOHE ([7]; rate 31 g/ha)	damage to plant (100 = total damage; 0 = no damage), PRE Application IPOHE ([7]; rate 130 g/ha)
CCS(=O)(=O)Nc1c(OC(F)(F)F)ccc(C(=O)Nc2nnnn2C)c1C [Compound 1.081]	5 (5=80-100%)	5 (5=80-100%)	5 (5=80-100%)	5 (5=80-100%)	5 (5=80-100%)	5 (5=80-100%)	5 (5=80-100%)	3 (3=40-59%)	5 (5=80-100%)	5 (5=80-100%)	90	100	60	90	20	80	40	50
Cc1c(C(=O)Nc2nnnn2C)ccc(OC(F)(F)F)c1NS(C)(=O)=O [Compound 1.075]	–	5 (5=80-100%)	5 (5=80-100%)	5 (5=80-100%)	5 (5=80-100%)	5 (5=80-100%)	5 (5=80-100%)	3 (3=40-59%)	5 (5=80-100%)	4 (4=60-79%)	80	100	60	90	30	60	40	50
